Measured values published in publication PMC8755628 (Pharmacological research, 2021).

Molecular target: MET (Homo sapiens, UniProt P08581)
Assay: MET kinase assay
Assay type: biochemical

MET, sequence (P08581 25-307): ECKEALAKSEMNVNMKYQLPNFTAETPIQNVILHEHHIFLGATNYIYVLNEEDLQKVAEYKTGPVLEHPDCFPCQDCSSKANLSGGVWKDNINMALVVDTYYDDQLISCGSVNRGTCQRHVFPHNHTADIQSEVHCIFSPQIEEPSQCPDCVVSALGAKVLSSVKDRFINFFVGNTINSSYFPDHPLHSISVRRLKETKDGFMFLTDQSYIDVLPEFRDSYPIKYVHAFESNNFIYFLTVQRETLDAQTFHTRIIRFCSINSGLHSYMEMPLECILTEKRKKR
MET, sequence (P08581 308-1390): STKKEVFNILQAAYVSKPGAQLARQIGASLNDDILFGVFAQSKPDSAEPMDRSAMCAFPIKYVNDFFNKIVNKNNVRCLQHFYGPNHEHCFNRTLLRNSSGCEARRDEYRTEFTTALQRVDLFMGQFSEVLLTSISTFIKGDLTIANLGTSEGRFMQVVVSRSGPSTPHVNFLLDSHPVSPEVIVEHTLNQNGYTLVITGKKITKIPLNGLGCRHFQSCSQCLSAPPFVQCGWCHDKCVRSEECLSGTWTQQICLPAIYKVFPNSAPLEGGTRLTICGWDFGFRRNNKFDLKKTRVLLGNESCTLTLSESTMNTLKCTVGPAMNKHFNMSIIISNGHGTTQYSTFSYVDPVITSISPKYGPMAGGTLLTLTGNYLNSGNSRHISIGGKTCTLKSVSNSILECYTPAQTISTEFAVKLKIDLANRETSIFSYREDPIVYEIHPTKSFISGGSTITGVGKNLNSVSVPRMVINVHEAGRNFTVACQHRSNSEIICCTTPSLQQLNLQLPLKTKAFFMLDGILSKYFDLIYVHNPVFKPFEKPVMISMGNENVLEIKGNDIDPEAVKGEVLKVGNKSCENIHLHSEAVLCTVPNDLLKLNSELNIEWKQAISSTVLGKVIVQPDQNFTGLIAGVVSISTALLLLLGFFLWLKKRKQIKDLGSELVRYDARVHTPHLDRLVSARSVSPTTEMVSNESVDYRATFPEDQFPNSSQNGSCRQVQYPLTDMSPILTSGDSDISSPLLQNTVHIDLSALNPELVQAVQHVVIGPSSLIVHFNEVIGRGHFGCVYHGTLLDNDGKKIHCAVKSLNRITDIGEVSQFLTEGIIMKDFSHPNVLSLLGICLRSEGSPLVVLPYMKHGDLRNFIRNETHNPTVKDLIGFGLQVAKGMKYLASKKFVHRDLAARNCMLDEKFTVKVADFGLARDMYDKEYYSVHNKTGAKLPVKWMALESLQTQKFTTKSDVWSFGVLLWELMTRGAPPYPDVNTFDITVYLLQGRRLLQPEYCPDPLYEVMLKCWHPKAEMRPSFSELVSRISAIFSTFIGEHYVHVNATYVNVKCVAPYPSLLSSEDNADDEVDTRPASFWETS

Compound: COc1ccc2cc3[n+](cc2c1OC)CCc1cc2c(cc1-3)OCO2 [BBR, Berberine]
- IC50: 19.6 µM
